For data set [1], the target named is Human CGRP receptors (consisting of CRLR and RAMP1) (Homo sapiens (Human), UniProt O60894+Q16602). In words: Radioligand binding assay (3H-telcagepant displacement). The following applies: Sf21 membranes, 0.5 nM 3H-telcagepant, Cheng-Prussoff. The method, then: Human Calcitonin Receptor Like Receptor (CRLR) and human RAMP1 were cloned into Invitrogen's (ThermoFisher Scientific, UK) pFastBac dual expression vector. Transposition of CRLR/RAMP1 DNA was performed using Invitrogen's Bac-to-Bac Baculovirus Expression Systems. P0 baculovirus was generated by transfecting SF9 cells with bacmid DNA using Cellfectin® II transfection reagent (ThermoFisher Scientific, UK, catalog number 10362-100). Following P0 generation P1 virus was then generated ready for large scale infection and membrane preparation. Sf21 cells were grown in expression medium ESF921 (Expression Systems, USA, catalog number 96-001-01) supplemented with 10% heat-inactivated FBS and 1% Pen/Strep and were infected at a cell density of 2.5×10^6 cells/mL and an MOI of 2. Expression was carried out over 48 h in a shaking incubator set at 27° C. The cell culture was centrifuged at 2,500 rcf for 10 min at 4° C. The pellets were resuspended in cold PBS supplemented with Roche's Complete EDTA-free protease inhibitor cocktail tablets (Roche Applied Sciences, catalog number 05056489001), 1 mM PMSF and 1 mM EDTA. The resuspended cell paste was then centrifuged at 3,273 rcf for 12 min at 4° C. The supernatant was discarded and the pellet frozen at −80° C. The cell pellet from a 4 L culture was resuspended in buffer containing 50 mM Hepes pH 7.5, 150 mM NaCl, 8 Roche EDTA-free protease inhibitor cocktail tablets and 1 mM PMSF. The suspension was left stirring at rt for 1 h and then homogenised for 90 s at 9,500 rpm using a VDI 25 (VWR, USA) homogeniser. The cells were then lysed using a Microfluidizer processor M-110L Pneumatic (Microfluidics, USA). After lysis, the mixture was homogenised for 90 s at 9,500 rpm and then centrifuged at 335 rcf for 10 min. The supernatant was then further ultra-centrifuged at 42,000 rpm for 90 min. After ultra-centrifugation, the supernatant was discarded and the pellet was resuspended in 50 mL (25 mL for each 2 L culture) of buffer containing 50 mM Hepes pH 7.5, 150 mM NaCl, 3 Roche EDTA-free protease inhibitor cocktail tablets and 1 mM PMSF. The suspension was then homogenised for 90 s at 9,500 rpm. The resulting membranes were then stored at −80° C.
Chain of Human CGRP receptors (consisting of CRLR and RAMP1) (Q16602 23-461): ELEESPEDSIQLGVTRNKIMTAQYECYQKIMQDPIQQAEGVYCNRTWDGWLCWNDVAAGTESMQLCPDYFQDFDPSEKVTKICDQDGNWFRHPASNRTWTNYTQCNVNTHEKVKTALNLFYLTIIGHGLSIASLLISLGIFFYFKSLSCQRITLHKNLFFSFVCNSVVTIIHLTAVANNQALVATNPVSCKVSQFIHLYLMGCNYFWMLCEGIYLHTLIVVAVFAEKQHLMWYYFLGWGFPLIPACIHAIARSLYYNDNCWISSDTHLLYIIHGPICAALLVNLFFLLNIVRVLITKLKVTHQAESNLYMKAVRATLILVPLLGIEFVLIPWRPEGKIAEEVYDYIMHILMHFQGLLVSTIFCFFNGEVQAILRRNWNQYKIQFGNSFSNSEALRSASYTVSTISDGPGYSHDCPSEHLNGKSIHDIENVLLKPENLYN
Chain of Human CGRP receptors (consisting of CRLR and RAMP1) (O60894 27-148): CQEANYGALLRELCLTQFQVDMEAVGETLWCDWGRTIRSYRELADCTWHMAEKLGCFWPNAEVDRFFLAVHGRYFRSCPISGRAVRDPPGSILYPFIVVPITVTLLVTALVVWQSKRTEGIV
Human CGRP receptors expressed (consisting of CRLR and RAMP1) in insect Sf21 cell membrane homogenates were re-suspended in the binding buffer (10 mM HEPES, pH 7.4, 5 mM MgCl2, 0.2% BSA) to a final assay concentration of 0.6 μg protein per well. Saturation isotherms were determined by the addition of various concentrations of ^3H-telcagepant (Ho et al, The Lancet, 2008, 372, 2115) (in a total reaction volume of 250 μL) for 60 min at rt. At the end of the incubation, membranes were filtered onto a unifilter, a 96-well white microplate with bonded GF/B filter pre-incubated with 0.5% PEI, with a Tomtec cell harvester and washed 5 times with distilled water. Non-specific binding (NSB) was measured in the presence of 10 nM MK-3207 hydrochloride (CAS No. 957116-20-0). Radioactivity on the filter was counted (1 min) on a microbeta counter after addition of 50 μL of scintillation fluid. For inhibition experiments, membranes were incubated with 0.5 nM ^3H-telcagepant and 10 concentrations of the inhibitory compound (0.001-10 μM). IC50 values were derived from the inhibition curve and the affinity constant (Ki) values were calculated using the Cheng-Prussoff equation (Cheng et al, Biochem. Pharmacol. 1973, 22, 3099-3108).

Data set [2] deals with T1, CGRP receptor (Homo sapiens (Human), UniProt O60894+Q16602). In words: cAMP functional assay (HTRF) in SK-N-MC cells. Type of data set: cell-based. The settings on record: read-out: pkb average (converted). On the procedure: cAMP production following receptor activation was determined using the Homogeneous Time-Resolved Fluorescence (HTRF) cAMP dynamic-2 assay (Cisbio, France). The human neuroblastoma cell line SK-N-MC endogenously expressing the human CGRP receptor was seeded at a density of 12,500 cells/well in solid walled 96 well half area plates (Costar, Catalog Number 3688, Corning Life Sciences, Germany). After 16 h incubation at 37° C. media was removed and cells were incubated at 37° C. for 30 min in serum free media containing 500 μM IBMX (Tocris, Abingdon, UK, Catalog Number 2845) and increasing concentrations of test antagonist. Following this cells were challenged with an EC80 concentration of human CGRP (0.3 nM) for a further 30 min at 37° C. and then cAMP production was determined as manufacturer's instructions before plates were read on a PheraStar fluorescence plate reader (BMG LabTech, Germany). IC50 values were derived from the inhibition curve. The pIC50 values (where pIC50=−log10 IC50) were converted to a functional pKb value using a modified Cheng-Prussoff equation where Kd=agonist EC50 and L hot=agonist challenge concentration. The pKb values of certain compounds of the invention are detailed in Table 3.
T1 sequence (Q16602 23-461): as the sequence (Q16602 23-461) above
T1 sequence (O60894 27-148): as the sequence (O60894 27-148) above

Data set [3] can be described thus: Thermodynamic solubility profiling. Type of data set: physicochemical. The settings on record: aqueous buffer, thermodynamic from solid. The method, then:
A 50 mM DMSO stock solution of test compound was prepared, and from this, a working solution of 1 mM was prepared by dilution with DMSO. The UV absorbance of working solution was scanned from 220 nm to 1000 nm to identify the wavelength maxima of test compound. The 1 mM working solution was then serially diluted in DMSO to different concentrations to determine linearity/calibration curve. […] The resulting solution was then kept on a RotoSpin shaker at 50 rpm for 24 h at rt before the solution was filtered using 0.45 micron PVDF injector filters in order to remove the insoluble fraction of the compound. Subsequently, 150 uL of the filtrate is taken for quantification using a UV spectrophotometer, acquiring the optical density of standard solutions and test compound at the same wavelength maxima. From the optical density of test compound the thermodynamic solubility is calculated using the linearity/calibration curve and expressed as micromolar (μM). Solubility profiles of certain compounds of the invention are detailed in Table 7.

Data set [4] can be described thus: Rat pharmacokinetic profiling (iv, sc, IN). The following applies: male, Sprague Dawley; for clearance: iv.
Experimental: Pharmacokinetic profiling.
Prior to IN dosing rats were anaesthetised with an intramuscular dose of 25-30 mg/kg ketamine cocktail (ketamine, xylazine hydrochloride and acepromazine maleate in saline) and the dose is introduced over 20-30 s via a polyethylene PE-10 tube inserted approximately 5 mm into the nasal cavity of the rat.
(§1) WinNonlin v6.2 statistics software (Pharsight Corporation, California, USA) was used to generate pharmacokinetic parameters using the non-compartmental model.
Data set [5] can be described thus: Cynomolgus monkey pharmacokinetic profiling (iv, sc). The following applies: male; for clearance: plasma, iv.
Text: Pharmacokinetic profiling.
as §1
Data set [6] concerns the target T2, CGRP receptor ectodomain complex (Homo sapiens (Human), UniProt O60894+Q16602). In words: Receptor kinetic profiling by surface plasmon resonance (Biacore T200). The settings on record: SPR; for receptor dissociation (off-rate) compared with olcegepant or MK-3207: in words; for CGRP t1/2: dissociation half-life, 25° C.
Experimental: (§2) Kinetic analyses were run on a Biacore T200 instrument (GE Healthcare Bio-Sciences AB, Uppsala, Sweden) at 25° C. using 0.05 mM EDTA, PBS (10 mM phosphate buffer, 2.7 mM KCl, 137 mM NaCl) pH 7.4, 0.005% v/v Surfactant P20, 5% DMSO as the running buffer. […] The chip was loaded with Ni^2+ and carboxyl groups of the dextran matrix were activated by EDC/NHS. The receptor ectodomain complex (100 nM in running buffer) was then injected and immobilised via the His-tag and amino groups. Two fold dilution series of each compound (five concentrations, in the range 25-40 nM) were injected. Blank-subtracted data were fitted to a 1:1 interaction model to obtain kinetic parameters which are expressed in Table 4 as dissociation half-life (t1/2=(ln 2/off-rate (kd)/60).
Data set [7] has as its target T2, CGRP receptor ectodomain complex.
Experimental: as §2
The target in data set [8] is T1, CGRP receptor. The settings on record: in words, literature; cited from earlier work.
For data set [9] the following is noted: at 24 h after intravenous infusion of a 2.5 mg dose; cited from earlier work.
Setting [10] is: PBS buffer pH 7.4, 24 h at rt, read-out: Thermodynamic solubility pH 7.4.
Where [11] appears, read: Sodium Phosphate Buffer pH 6.0, 24 h at rt, read-out: Thermodynamic solubility pH 6.

Converted amounts (≈) assume the structure as drawn. Read-outs that look alike come from different tables or passages of the source.

T2 sequence (Q16602 23-139): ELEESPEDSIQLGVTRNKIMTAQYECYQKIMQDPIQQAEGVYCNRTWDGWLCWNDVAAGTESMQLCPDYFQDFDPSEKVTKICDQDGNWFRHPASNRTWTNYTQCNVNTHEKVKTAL
T2 sequence (O60894 27-118): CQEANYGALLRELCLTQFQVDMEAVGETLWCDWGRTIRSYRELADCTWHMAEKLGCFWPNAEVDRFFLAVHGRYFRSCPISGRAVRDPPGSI

`Cc1cc(C[C@@H](NC(=O)N2CCC3(CC2)OC(=O)Nc2ncccc23)C(=O)N[C@@H](CC2CCNCC2)C(=O)N2CCN(c3ccncc3)CC2)cc2cn[nH]c12` [Example 11, N-[(2R)-3-(7-methyl-1H-indazol-5-yl)-1-oxo-1-({(2S)-1-oxo-3-(piperidin-4-yl)-1-[4-(pyridin-4-yl)piperazin-1-yl]propan-2-yl}amino)propan-2-yl]-2′-oxo-1′,2′-dihydro-1H-spiro[piperidine-4,4′-pyrido[2,3-d][1,3]oxazine]-1-carboxamide]: the pKi average in data set [1] is recorded as 10.5. The Kb on CGRP receptor [2] was 0.0501 nM. Moreover, the thermodynamic solubility at 24 h in [3] (setting [10]) worked out at 1430 µM (≈ 1090 µg/mL); in data set [3] (setting [11]), 1260 µM (≈ 965 µg/mL). Further, the bioavailability in data set [4] (in vivo, sc, 1 mg/kg) came to 100%; in data set [4] (plasma, inhaled or intranasal), 40%; in data set [5] (in vivo, sc, 0.5 mg/kg), 100%. Further, the clearance came out at 17 mL/min/kg in data set [4] (plasma) and 2 mL/min/kg in data set [5]. Further, the “receptor dissociation (off-rate) compared with olcegepant or MK-3207” value in [6] is “slow receptor dissociation”. Also, the “CGRP t1/2” value in data set [6] is given as 65 min.

`O=C1Nc2ncccc2C2(CCN(C(=O)N[C@H](Cc3cc(Br)c(O)c(Br)c3)C(=O)N[C@@H](CC3CCNCC3)C(=O)N3CCN(c4ccncc4)CC3)CC2)O1` [Example 14, 3,5-dibromo-Nα-[(2′-oxo-1′,2′-dihydro-1H-spiro[piperidine-4,4′-pyrido[2,3-d][1,3]oxazin]-1-yl)carbonyl]-N-{(2S)-1-oxo-3-(piperidin-4-yl)-1-[4-(pyridin-4-yl)piperazin-1-yl]propan-2-yl}-D-tyrosinamide] yielded a pKi average in data set [1] of 10.1. The Kb at CGRP receptor [2] was 0.0158 nM. In addition, the thermodynamic solubility at 24 h is 862 µM (≈ 762 µg/mL) in [3] (setting [10]) and 1110 µM (≈ 982 µg/mL) in data set [3] (setting [11]). In addition, in data set [7], the “CGRP t1/2” value was determined as 38 min. For the same compound, the bioavailability in data set [4] (plasma, inhaled or intranasal) stood at 19%; in [4] (plasma, sc, 1 mg/kg), 96%. The clearance was 22 mL/min/kg in [4] (plasma) and 3 mL/min/kg in data set [5]. Further, the “receptor dissociation (off-rate) compared with olcegepant or MK-3207” value in data set [6] is reported as “slow receptor dissociation”.

As to `O=C(CN1C(=O)C2(CCCC2)NC[C@H]1c1cc(F)cc(F)c1)Nc1ccc2c(c1)C[C@@]1(C2)C(=O)Nc2ncccc21` [MK-3207, reference compound], the “kinetics at the CGRP receptor” value at CGRP receptor [8] is recorded as “relatively slow dissociation”. Also, in data set [6], the “CGRP t1/2” value turned out to be 27 min.

As for `NCCCC[C@H](NC(=O)[C@@H](Cc1cc(Br)c(O)c(Br)c1)NC(=O)N1CCC(N2Cc3ccccc3NC2=O)CC1)C(=O)N1CCN(c2ccncc2)CC1` [olcegepant], in data set [9], the headache-free rate is reported as 47%. Further, on CGRP receptor [8], the “kinetics at the CGRP receptor” value was “slow kinetics”. In addition, in data set [6], the “CGRP t1/2” value stood at 30 min.

The values above are taken from patent publication US10300056B2, “CGRP receptor antagonists” (Heptares Therapeutics Limited, priority 2015, dated 2019).
